Laboratory results as given in publication PMC10247784, “Physiological activation of human and mouse bitter taste receptors by bile acids” (Communications Biology, 2023).

Molecular target: T1, mouse Tas2r105 (Mus musculus, UniProt Q9JKT4)
T1 construct: expressed in transfected cells; host or cells: HEK293T-Gα16gust44
T1 sequence (Q9JKT4 1-300): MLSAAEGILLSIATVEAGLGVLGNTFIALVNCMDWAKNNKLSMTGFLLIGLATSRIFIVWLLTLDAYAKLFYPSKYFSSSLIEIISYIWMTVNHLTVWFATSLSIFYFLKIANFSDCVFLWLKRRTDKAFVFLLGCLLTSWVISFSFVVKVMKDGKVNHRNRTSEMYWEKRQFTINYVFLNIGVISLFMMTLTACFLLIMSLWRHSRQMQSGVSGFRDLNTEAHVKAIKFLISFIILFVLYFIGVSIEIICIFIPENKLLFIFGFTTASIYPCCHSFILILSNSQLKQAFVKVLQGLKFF
Test: Calcium imaging assay (FLIPR), HEK293T-Gα16gust44 cells transfected with mouse Tas2r105
Assay type: cell-based
Conditions: for Δ F/F: Tas2r105
Method: This set of bile acids was chosen because of their commercial availability in high purities, their diversity within the class of bile acids and their previous detection and quantitation in human blood. Stock solutions were prepared in DMSO.
As basal growth medium for the HEK293T-Gα16gust44 cell line[17],[59] served Dulbecco’s modified eagle medium (DMEM) (Thermo Fisher Scientific, Darmstadt, Germany) supplemented with 10 % fetal bovine serum (Sigma-Aldrich, Steinheim, Germany), 2 mM L-glutamine (Sigma-Aldrich, Steinheim, Germany), 100 units/ml penicillin (Sigma Aldrich, Steinheim, Germany) and 100 µg/ml streptomycin (Sigma Aldrich, Steinheim, Germany). Growth conditions were 37 °C, 5 % CO2 and saturated air-humidity[60].
HEK293T-Gα16gust44 cells were seeded on poly-D-lysine (10 µg/ml) coated 96-well plates to reach a confluence of 40-60 % the next day. For transient transfection 150 ng of plasmid DNA containing the receptor of interest and 0.3 µl lipofectamine 2000 (Thermo Fisher Scientific, Darmstadt, Germany) per well were used and transfection took place according to the manual of lipofectamine 2000. […] The empty vector DNA (mock) was transfected as negative control[14],[41].
Cells were loaded using the calcium-sensitive fluorescent dye Fluo-4-AM (Abcam, Cambridge, Great Britain) in the presence of 2.5 mM probenecid (Sigma-Aldrich, Steinheim, Germany) the day after transfection[13],[41]. 1 h after loading, cells were washed with C1 buffer using a BioTek Cell Washer, incubated in the dark for half an hour and washed again. For automated agonist application and measurement of fluorescence changes, a FLIPR^TETRA device (Molecular Devices, San José, United States) was used. Viability of cells was tested by application of 100 nM Somatostatin 14 (Bachem, Bubendorf, Switzerland)[42].
Measured data were negative control corrected by subtracting the signal of the mock-transfected cells and exported to Microsoft Excel using the FLIPR software ScreenWorks 4.2. In Microsoft Excel software, standardization of maximum fluorescence intensities to the basal fluorescence and normalization to the buffer-only control was done to calculate the relative fluorescence changes (ΔF/F).
Initial screening experiments performed in duplicate wells were confirmed by at least one replication and representative traces were selected for display. All dose-response relationships were determined by three independent experiments (biological replicates) performed in duplicates (technical replicates). Threshold concentrations, defined as lowest substance concentrations leading to statistically significant elevated fluorescence changes in receptor-transfected cells compared with empty vector-transfected cells, were determined using SigmaPlot with Student’s t-test to evaluate statistical significance (p < 0.01).

C[C@H](CCC(=O)NCCS(=O)(=O)O)[C@H]1CC[C@H]2[C@@H]3[C@H](O)C[C@@H]4C[C@H](O)CC[C@]4(C)[C@H]3C[C@H](O)[C@]12C [Taurocholic Acid, taurocholic acid]
Receptor response Tas2r105 (screening): lack of taurocholic acid responsiveness

C[C@H](CCC(=O)NCC(=O)O)[C@H]1CC[C@H]2[C@@H]3[C@H](O)C[C@@H]4C[C@H](O)CC[C@]4(C)[C@H]3C[C@H](O)[C@]12C [Glycocholic Acid, glycocholic acid]
Δ F/F (conc. 0,01 mM): 0.004381 | Δ F/F (conc. 0,1 mM): 0.01642 | Δ F/F (conc. 0,03 mM): 0.01245 | Δ F/F (conc. 0,3 mM): 0.0274 | Δ F/F (conc. 0,001 mM): 0.003279 | Δ F/F (conc. 1 mM): 0.07136 | Δ F/F (conc. 0,003 mM): -0.003104 | RLU (Time 0 s): 0 RLU | RLU (Time 2 s): -27.0595 RLU | RLU (Time 4 s): -18.6603 RLU | RLU (Time 6 s): -18.2123 RLU | RLU (Time 8 s): -47.8563 RLU | RLU (Time 12 s): -34.2819 RLU | RLU (Time 14 s): -34.7557 RLU | RLU (Time 16 s): -23.6188 RLU | RLU (Time 18 s): -16.5747 RLU | RLU (Time 18.781 s): -3.899 RLU | RLU (Time 20.781 s): -20.1413 RLU | RLU (Time 22.781 s): -4.143 RLU | RLU (Time 24.781 s): 15.6549 RLU | RLU (Time 26.781 s): 13.7683 RLU | RLU (Time 28.781 s): 17.1414 RLU | RLU (Time 30.781 s): 33.1924 RLU | RLU (Time 32.781 s): 40.0682 RLU | RLU (Time 34.781 s): 38.6999 RLU | RLU (Time 36.781 s): 117.771 RLU | RLU (Time 38.781 s): 121.11 RLU | RLU (Time 40.781 s): 113.511 RLU | RLU (Time 42.781 s): 141.314 RLU | RLU (Time 44.781 s): 160.969 RLU | RLU (Time 46.781 s): 200.571 RLU | RLU (Time 48.781 s): 228.76 RLU | RLU (Time 50.781 s): 238.054 RLU | RLU (Time 52.781 s): 279.774 RLU | RLU (Time 54.781 s): 314.942 RLU | RLU (Time 56.781 s): 299.791 RLU | RLU (Time 58.781 s): 350.668 RLU | RLU (Time 60.781 s): 363.761 RLU | RLU (Time 62.781 s): 387.64 RLU | RLU (Time 64.781 s): 388.62 RLU | RLU (Time 66.781 s): 424.095 RLU | RLU (Time 68.781 s): 419.549 RLU | RLU (Time 70.781 s): 443.973 RLU | RLU (Time 72.781 s): 413.221 RLU | RLU (Time 74.781 s): 419.192 RLU | RLU (Time 76.781 s): 460.126 RLU | RLU (Time 78.781 s): 478.685 RLU | RLU (Time 80.781 s): 487.49 RLU | RLU (Time 82.781 s): 529.97 RLU | RLU (Time 84.781 s): 535.792 RLU | RLU (Time 86.781 s): 528.828 RLU | RLU (Time 88.781 s): 565.311 RLU | RLU (Time 90.781 s): 546.96 RLU | RLU (Time 92.781 s): 541.782 RLU | RLU (Time 94.781 s): 524.334 RLU | RLU (Time 96.781 s): 507.8 RLU | RLU (Time 98.781 s): 505.738 RLU | RLU (Time 100.781 s): 510.912 RLU | RLU (Time 102.781 s): 470.239 RLU | RLU (Time 104.781 s): 497.869 RLU | RLU (Time 106.781 s): 500.977 RLU | RLU (Time 108.781 s): 492.243 RLU | RLU (Time 110.781 s): 525.903 RLU | RLU (Time 112.781 s): 501.6 RLU | RLU (Time 114.781 s): 517.173 RLU | RLU (Time 116.781 s): 514.443 RLU | RLU (Time 118.781 s): 515.53 RLU | RLU (Time 120.781 s): 497.17 RLU | RLU (Time 122.781 s): 525.829 RLU | RLU (Time 124.781 s): 530.193 RLU | RLU (Time 126.781 s): 525.829 RLU | RLU (Time 128.781 s): 520.174 RLU | RLU (Time 130.781 s): 519.565 RLU | RLU (Time 132.781 s): 551.214 RLU | RLU (Time 134.781 s): 551.693 RLU | RLU (Time 136.781 s): 519.874 RLU | RLU (Time 137.578 s): 524.174 RLU | RLU (Time 143.578 s): 517.004 RLU | RLU (Time 149.578 s): 507.474 RLU | RLU (Time 155.578 s): 522.299 RLU | RLU (Time 161.578 s): 476.762 RLU | RLU (Time 167.578 s): 499.828 RLU | RLU (Time 173.578 s): 455.735 RLU | RLU (Time 179.578 s): 459.26 RLU | RLU (Time 185.578 s): 429.678 RLU | RLU (Time 191.578 s): 409.042 RLU | RLU (Time 197.578 s): 394.775 RLU | RLU (Time 203.578 s): 421.467 RLU | RLU (Time 209.578 s): 379.61 RLU | RLU (Time 215.578 s): 405.275 RLU | RLU (Time 221.578 s): 372.014 RLU | RLU (Time 227.578 s): 339.525 RLU | RLU (Time 233.578 s): 348.807 RLU | RLU (Time 239.578 s): 313.214 RLU | RLU (Time 245.578 s): 300.083 RLU | RLU (Time 293.578 s): 317.696 RLU | RLU (Time 299.578 s): 309.428 RLU | RLU (Time 305.578 s): 321.267 RLU | RLU (Time 311.578 s): 329.776 RLU | RLU (Time 317.578 s): 375.676 RLU | RLU (Time 323.578 s): 369.197 RLU | RLU (Time 329.578 s): 335.975 RLU | RLU (Time 335.578 s): 363.52 RLU | RLU (Time 341.578 s): 327.284 RLU | RLU (Time 347.578 s): 338.669 RLU | RLU (Time 353.578 s): 324.825 RLU | RLU (Time 359.578 s): 287.782 RLU | Activation threshold concentration Tas2r105 (p < 0.01 vs empty vector): 300 µM
